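A five-concentration, 48-hour dose response in 96-well plates underlies each endpoint, interpolated linearly between surrounding concentrations. TGI denotes the concentration required for complete inhibition of growth.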
What was measured:
Experiment in all cases: NCI-60 cell line screen, 48 h
K-562 leukemia = test system: K-562 leukemia
MALME-3M melanoma = test system: MALME-3M melanoma
UACC-257 melanoma = test system: UACC-257 melanoma
ACHN renal = test system: ACHN renal
DMS 273 small cell lung = test system: DMS 273 small cell lung
CAKI-1 renal = test system: CAKI-1 renal
MOLT-4 leukemia = test system: MOLT-4 leukemia
SNB-75 CNS = test system: SNB-75 CNS
HCC-2998 colon = test system: HCC-2998 colon
SN12C renal = test system: SN12C renal
HT29 colon = test system: HT29 colon
COLO 205 colon = test system: COLO 205 colon
NCI-H460 lung = test system: NCI-H460 lung
NCI-H522 lung = test system: NCI-H522 lung
SK-MEL-5 melanoma = test system: SK-MEL-5 melanoma
HOP-92 NSCLC = test system: HOP-92 NSCLC
A549 NSCLC = test system: A549 NSCLC
OVCAR-4 ovarian = test system: OVCAR-4 ovarian
HL-60(TB) leukemia = test system: HL-60(TB) leukemia
LXFL 529 NSCLC = test system: LXFL 529 NSCLC
HOP-62 NSCLC = test system: HOP-62 NSCLC
SF-268 CNS = test system: SF-268 CNS
HCT-116 colon = test system: HCT-116 colon
NCI-H226 lung = test system: NCI-H226 lung
SNB-78 CNS = test system: SNB-78 CNS
IGROV1 ovarian = test system: IGROV1 ovarian
SR leukemia = test system: SR leukemia
SF-539 CNS = test system: SF-539 CNS
KM20L2 colon = test system: KM20L2 colon
SK-OV-3 ovarian = test system: SK-OV-3 ovarian
M14 melanoma = test system: M14 melanoma
CCRF-CEM leukemia = test system: CCRF-CEM leukemia
SW-620 colon = test system: SW-620 colon
EKVX NSCLC = test system: EKVX NSCLC
M19-MEL melanoma = test system: M19-MEL melanoma
SNB-19 CNS = test system: SNB-19 CNS
TK-10 renal = test system: TK-10 renal
OVCAR-5 ovarian = test system: OVCAR-5 ovarian
OVCAR-3 ovarian = test system: OVCAR-3 ovarian
KM12 colon = test system: KM12 colon
HCT-15 colon = test system: HCT-15 colon
UO-31 renal = test system: UO-31 renal
DMS 114 small cell lung = test system: DMS 114 small cell lung
SF-295 CNS = test system: SF-295 CNS
NCI-H23 lung = test system: NCI-H23 lung
SK-MEL-28 melanoma = test system: SK-MEL-28 melanoma
U251 CNS = test system: U251 CNS
DLD-1 colon = test system: DLD-1 colon
UACC-62 melanoma = test system: UACC-62 melanoma

C=CCc1cc(OC)c2c(c1)C(OC(C)=O)CC(c1ccc(OC)c(OC)c1)O2 (centres undefined)
TGI (K-562 leukemia): > 100 µM | TGI (MALME-3M melanoma): > 100 µM | TGI (UACC-257 melanoma): > 100 µM | TGI (ACHN renal): > 100 µM | TGI (DMS 273 small cell lung): > 100 µM | TGI (CAKI-1 renal): > 100 µM | TGI (MOLT-4 leukemia): > 100 µM | TGI (SNB-75 CNS): 58.6 µM | TGI (HCC-2998 colon): > 100 µM | TGI (SN12C renal): > 100 µM | TGI (HT29 colon): > 100 µM | TGI (COLO 205 colon): > 100 µM | TGI (NCI-H460 lung): > 100 µM | TGI (NCI-H522 lung): > 100 µM | TGI (SK-MEL-5 melanoma): > 100 µM | TGI (HOP-92 NSCLC): 76.2 µM | TGI (A549 NSCLC): > 100 µM | TGI (OVCAR-4 ovarian): > 100 µM | TGI (HL-60(TB) leukemia): > 100 µM | TGI (LXFL 529 NSCLC): > 100 µM | TGI (HOP-62 NSCLC): > 100 µM | TGI (SF-268 CNS): > 100 µM | TGI (HCT-116 colon): > 100 µM | TGI (NCI-H226 lung): > 100 µM | TGI (SNB-78 CNS): > 100 µM | TGI (IGROV1 ovarian): > 100 µM | TGI (SR leukemia): > 100 µM | TGI (SF-539 CNS): > 100 µM | TGI (KM20L2 colon): > 100 µM | TGI (SK-OV-3 ovarian): > 100 µM | TGI (M14 melanoma): > 100 µM | TGI (CCRF-CEM leukemia): > 100 µM | TGI (SW-620 colon): > 100 µM | TGI (EKVX NSCLC): > 100 µM | TGI (M19-MEL melanoma): > 100 µM | TGI (SNB-19 CNS): > 100 µM | TGI (TK-10 renal): > 100 µM | TGI (OVCAR-5 ovarian): > 100 µM | TGI (OVCAR-3 ovarian): > 100 µM | TGI (KM12 colon): > 100 µM | TGI (HCT-15 colon): > 100 µM | TGI (UO-31 renal): > 100 µM | TGI (DMS 114 small cell lung): > 100 µM | TGI (SF-295 CNS): > 100 µM | TGI (NCI-H23 lung): > 100 µM | TGI (SK-MEL-28 melanoma): > 100 µM | TGI (U251 CNS): > 100 µM | TGI (DLD-1 colon): > 100 µM | TGI (UACC-62 melanoma): > 100 µM

Source: PubChem BioAssay (NCI)
